The values below come from US10265298B2, “Method of increasing the bioavailability of silybin” (Macau University of Science and Technology, priority 2017, dated 2019).

Sequence of MRP2 (Q92887 whole entry): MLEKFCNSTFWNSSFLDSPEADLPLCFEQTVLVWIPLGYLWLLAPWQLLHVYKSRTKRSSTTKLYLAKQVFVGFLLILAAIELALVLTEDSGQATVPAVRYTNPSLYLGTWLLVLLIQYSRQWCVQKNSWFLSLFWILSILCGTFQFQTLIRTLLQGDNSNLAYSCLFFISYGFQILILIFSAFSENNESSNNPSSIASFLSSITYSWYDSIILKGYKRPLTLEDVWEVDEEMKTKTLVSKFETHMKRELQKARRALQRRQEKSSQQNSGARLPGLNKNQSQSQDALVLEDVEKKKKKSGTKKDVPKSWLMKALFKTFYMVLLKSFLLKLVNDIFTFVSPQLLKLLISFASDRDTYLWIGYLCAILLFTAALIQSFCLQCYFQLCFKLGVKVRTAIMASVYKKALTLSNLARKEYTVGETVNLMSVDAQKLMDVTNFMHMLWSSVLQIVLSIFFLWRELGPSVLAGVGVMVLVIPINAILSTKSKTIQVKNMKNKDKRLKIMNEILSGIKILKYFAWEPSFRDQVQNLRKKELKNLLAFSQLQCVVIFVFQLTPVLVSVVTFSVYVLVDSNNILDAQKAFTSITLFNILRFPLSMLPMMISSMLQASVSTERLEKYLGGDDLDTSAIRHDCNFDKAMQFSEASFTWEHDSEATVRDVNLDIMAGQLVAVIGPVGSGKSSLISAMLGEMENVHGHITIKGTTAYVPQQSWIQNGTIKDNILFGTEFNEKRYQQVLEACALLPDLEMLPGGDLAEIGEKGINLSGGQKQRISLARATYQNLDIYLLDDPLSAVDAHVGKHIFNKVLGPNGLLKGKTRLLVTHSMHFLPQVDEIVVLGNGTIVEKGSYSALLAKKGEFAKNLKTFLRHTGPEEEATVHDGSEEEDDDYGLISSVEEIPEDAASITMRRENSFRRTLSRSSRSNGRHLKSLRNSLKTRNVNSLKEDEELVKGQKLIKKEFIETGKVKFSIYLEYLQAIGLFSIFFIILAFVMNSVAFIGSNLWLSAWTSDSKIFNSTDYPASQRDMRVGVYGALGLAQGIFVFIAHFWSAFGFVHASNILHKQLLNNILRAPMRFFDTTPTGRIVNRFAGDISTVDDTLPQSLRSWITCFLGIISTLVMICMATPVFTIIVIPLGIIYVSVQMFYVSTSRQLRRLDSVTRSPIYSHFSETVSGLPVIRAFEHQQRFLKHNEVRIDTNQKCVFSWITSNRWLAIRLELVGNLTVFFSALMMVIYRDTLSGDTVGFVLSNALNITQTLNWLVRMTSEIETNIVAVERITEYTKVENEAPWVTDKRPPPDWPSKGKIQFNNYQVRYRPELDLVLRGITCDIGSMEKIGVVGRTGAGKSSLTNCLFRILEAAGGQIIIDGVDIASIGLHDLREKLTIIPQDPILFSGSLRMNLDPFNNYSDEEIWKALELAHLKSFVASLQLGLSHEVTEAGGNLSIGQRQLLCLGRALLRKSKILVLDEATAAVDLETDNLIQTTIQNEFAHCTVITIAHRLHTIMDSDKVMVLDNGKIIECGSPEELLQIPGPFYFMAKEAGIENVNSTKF

The target in the first data set is T1, BCRP (Homo sapiens, UniProt Q9UNQ0).
T1 sequence (Q9UNQ0 1-655): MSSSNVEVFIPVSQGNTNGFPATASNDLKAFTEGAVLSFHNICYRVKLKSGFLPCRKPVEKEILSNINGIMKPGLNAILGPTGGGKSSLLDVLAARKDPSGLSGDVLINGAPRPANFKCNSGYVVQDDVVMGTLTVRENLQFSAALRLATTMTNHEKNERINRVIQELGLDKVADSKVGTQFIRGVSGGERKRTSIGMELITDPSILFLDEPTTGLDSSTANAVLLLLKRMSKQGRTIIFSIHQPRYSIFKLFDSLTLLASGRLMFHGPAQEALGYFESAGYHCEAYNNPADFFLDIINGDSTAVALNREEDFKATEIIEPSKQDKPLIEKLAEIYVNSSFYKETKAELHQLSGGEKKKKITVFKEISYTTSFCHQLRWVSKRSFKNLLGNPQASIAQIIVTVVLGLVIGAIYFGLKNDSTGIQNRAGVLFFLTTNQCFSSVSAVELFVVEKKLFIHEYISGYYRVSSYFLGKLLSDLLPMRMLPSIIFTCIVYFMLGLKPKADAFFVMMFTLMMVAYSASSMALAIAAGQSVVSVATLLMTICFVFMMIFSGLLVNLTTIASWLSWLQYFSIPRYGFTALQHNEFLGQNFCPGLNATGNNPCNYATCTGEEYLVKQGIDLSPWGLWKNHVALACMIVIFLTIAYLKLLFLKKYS
Put plainly: Inhibition of pheophorbide A (Ph A) efflux in MDCKII-BCRP cell monolayers.
Conditions: not given
As for the experimental part:
(§1) Parental Madin-Darby canine kidney II (MDCKII), multi-drug resistance gene 1-Madin-Darby canine kidney II (MDR1-MDCKII), breast cancer resistance protein-Madin-Darby canine kidney II (BCRP-MDCKII), and multi-drug resistance protein 2-Madin-Darby canine kidney II (MRP2-MDCKII) cells were kindly provided by the Netherlands Cancer Institute (Amsterdam, Netherlands) and frozen at −80° C. The MDCKII cells were cultured at 37° C./5% CO2 in Dulbecco's modified Eagle's medium supplemented with 10% fetal bovine serum, 1% nonessential amino acids, and 2% penicillin-streptomycin. The cells were seeded on transwell inserts (Corning Inc.) at a density of 2.0×10^5 cells/cm^2 and grown for 4-5 days to form confluent monolayers.
(§2) Bidirectional transport assays in human colorectal adenocarcinoma 2 (Caco-2) and Madin-Darby canine kidney II (MDCK II) was carried out by dosing substrates in assay buffer to either the apical chamber (A-to-B) or the basolateral chamber (B-to-A); cells were then incubated at 37° C. with shaking at 50 rotations per minute (rpm), and 100 μl samples were collected at 30, 60, 90, 120 and 180 minutes from the basolateral chamber to study the drug transport of AP to BL, or apical chamber to study the drug transport of BL to AP. Cell monolayers were then washed twice with ice-cold assay buffer and lysed with methanol on ice for 10 minutes. For inhibition studies, Caco-2 or MDCK II cell monolayers were pre-incubated with an inhibitor in both apical and basolateral chambers for 30 minutes, and bidirectional transport of 10 μM silybin was conducted in the absence (control) or presence of the inhibitor in both chambers. […] For fluorescence intensity detection, samples collected from AP or BL side were immediately detected in 96 well black plate by Microplate ultraviolet-visible spectroscopy (UV/VIS) spectrophotometer (TECAN infinite M200 PRO, Männedorf, Switzerland). In all cases, each determination was performed in triplicate.
(§3) The apparent permeability coefficients (Papp) were calculated as Papp=dQ/dt×1/(C“0”A) where dQ/dt (mM/sec) is the rate of permeation of the drug across the cells, C0 (millimolar (mM)) is the donor compartment concentration at time zero and A (cm^2) is the area of the cell monolayer. C0 is obtained from analysis of the dosing solution at the start experiment. Efflux Ratio (ER)=Papp (B to A)/Papp (A to B), while Papp (B−A) is the Papp value measured in the B to A direction, and Papp (A−B) is the Papp value measured in the A to B direction. 1.5 Preparation of Rat Sandwich-Cultured Hepatocytes
(§4) (*, P<0.05;**, P<0.01; ***, P<0.001 vs absence of any inhibitor. n=3).
as §4
In the case of pheophorbide A [Ph A], the “mean efflux ratio of pheophorbide A (Ph A)” value is reported as 2.82.

System in the next data set: not listed separately
Kind of data set: Bidirectional transport across Caco-2 cell monolayers. Conditions: human, Caco-2. As for the experimental part:
(§5) Human colorectal adenocarcinoma-2 (Caco-2) cells was obtained from American Type Culture Collection (Manassas, Va.) and frozen at −80° C. For transport study, cells were cultured at 37° C./5% CO2 in Dulbecco's modified Eagle's medium supplemented with 10% fetal bovine serum, 1% nonessential amino acids, and 1% penicillin-streptomycin. […] The culture medium was changed 24 hours after seeding to remove cell debris and dead cells; after which the medium was changed on alternate days. Monolayers were used for transport assays between 21 and 23 days for Caco-2 cells. Prior to transport study, cell monolayers were certified based on internal criteria on transepithelial electrical resistance (TEER) values.
(§6) Prior to transport study, cell monolayers were certified based on our internal criteria on transepithelial electrical resistance (TEER) values, and only monolayers that met the acceptance criteria (transepithelial electrical resistance >500 Ω·cm^2 for Caco-2 cells and >200 Ω·cm^2 for MDCK cells) were selected for transport studies.
as §2, §3
In general terms: Caco-2 monolayers are a common model of the intestinal barrier.
Compound `O=c1c(-c2ccc(O)cc2)coc2cc(O)cc(O)c12` [genistein] displayed a Papp at 180 min of 13 ×10⁻⁶ cm/s.

A further data set deals with Caco-2 cell monolayers. The data set is described as above. Conditions: Ko143 at 0.5 μM (BCRP inhibitor); quinidine at 20 μM (P-gp inhibitor). Here is the method:
as §5, §6, §2, §3
With `COc1ccc2c3c([nH]c2c1)[C@H](CC(C)C)N1C(=O)[C@H](CCC(=O)OC(C)(C)C)NC(=O)[C@@H]1C3` [Ko143, (3S,6S,12aS)-1,2,3,4,6,7,12,12a-octahydro-9-methoxy-6-(2-methylpropyl)-1,4-dioxo-pyrazino[1′,2′:1,6]pyrido[3,4-b]indole-3-propanoic acid 1,1-dimethylethyl ester], the “effect of efflux transporter inhibitor on efflux/absorption of silybin” value is given as “inhibited the efflux ratio of silybin”.

System in a further data set: not listed separately
Put plainly: in vitro. Conditions: male, Sprague Dawley, rat. It counts as in vitro ADME, rat. Here is the method: Sandwich-cultured rat hepatocytes (SCHs) were established according to previously described methods with minor modifications. Primary rat hepatocytes were isolated from male Sprague Dawley® (SD) rats (220-270 g) using a collagenase perfusion as described previously and plated at a density of 7.4×10^5 cells/2 ml/well onto six-well BioCoat plates. Approximately 24 hours later, hepatocytes were overlaid with 2 ml of 0.25 mg/ml BD Matrigel basement membrane matrix in Dulbecco's modified Eagle medium (DMEM) containing 1% volume by volume percentage (v/v) insulin/transferrin/selenium culture supplement, […] dexamethasone, 2 mM L-glutamine, 1% (v/v) minimum essential medium nonessential amino acids, 1% penicillin-streptomycin. Hepatocytes were cultured for 4 days to allow extensive formation of canalicular networks between cells before experimentation and the medium was changed daily.
Sandwich-cultured hepatocytes (SCHs) were pre-incubated in 2 milliliters (ml) of warm Hank's Balanced Salt Solution (HBSS) with or without Ca^2+ at 37° C. for 15 minutes; the tight junctions of the bile canaliculi open temporally after exposure to HBSS without Ca^2+. Subsequently, cells were incubated at 37° C. for 20 minutes with 1.5 ml of standard HBSS containing silybin (10 μM), or MK 571 (50 μM) as a positive control, or baicalein (25, 15.8, 5, 1.58, 0.5, 0.16 μM), or tangeretin (25, 15.8, 5, 1.58, 0.5 μM). After 20 min, cells were washed three times with ice-cold standard HBSS. The cell samples were lysed by sonication in 1 ml of water for 5 seconds with the ultrasonic cell disruption system (SONICS & […], INC., Newtown, Conn., USA). Conjugated silybin and unconjugated (free) silybin were quantified by high-performance liquid chromatography-tandem mass spectrometry (HPLC-MS/MS). Transport function was normalized to the protein content of the hepatocytes which was evaluated by bicinchoninic acid (BCA) protein assay (Pierce Chemical, Rockford, Ill.). The biliary excretion index (BEI; %) and in vitro biliary clearance (Clbiliary; ml/min/kg) were calculated by using B-CLEAR technology (Qualyst, Inc., Research Triangle Park, N.C.) based on the following equations: […]
Consider `CN(C)C(=O)CCSC(SCCC(=O)[O-])c1cccc(/C=C/c2ccc3ccc(Cl)cc3n2)c1.[Na+]` (centres unmarked) [MK571, (E)-3-[[[3-[2-(7-chloro-2-quinolinyl)ethenyl]phenyl][[3-(dimethylamino)-3-oxopropyl]thio]methyl]thio]-propanoic acid, sodium salt], for which the inhibition at 20 min, 50 μM came to 100%.

Another data set addresses MRP2 (Homo sapiens, UniProt Q92887). Put plainly: cell-based. Conditions: dog, 180 min. Here is the method:
as §1, §2, §3, §4, §4
For the compound `CN(C)C(=O)CCSC(SCCC(=O)[O-])c1cccc(/C=C/c2ccc3ccc(Cl)cc3n2)c1.[Na+]` (centres unmarked) [MK571, (E)-3-[[[3-[2-(7-chloro-2-quinolinyl)ethenyl]phenyl][[3-(dimethylamino)-3-oxopropyl]thio]methyl]thio]-propanoic acid, sodium salt], the “efflux ratio of CDCFDA in the presence of inhibitor” value came out at 1.11.

A further data set concerns Caco-2 cells. Put plainly: Glucuronidation of silybin in Caco-2 cells (LC-MS peak area of silybin glucuronides). Type of data set: in vitro ADME, human. Conditions: Homo sapiens, Caco-2; silybin 10 μM, test compound 20 μM co-incubation; read-out: inhibition on the glucuronide conjugation of silybin. As for the experimental part:
The analysis of silybin and total concentrations of glucuronides and sulfates was performed on an Agilent HP 1100 LC-MS system (Agilent, CA). A Waters ACQUITY UPLC® BEH C18 Column (1.7 μm, 2.1×50 mm, Waters Corp., Ireland) was used for detection with a C18 Security Guard cartridge (4×2.0 mm i.d., Phenomenex, Torrance, Calif.). Silybin A and silybin B were well separated using optimized gradient elution with methanol (mobile phase B) and 0.1% formic acid in water (mobile phase A) as mobile phase at a flow rate of 0.4 ml/min with a run time of 10 minutes. The gradient employed was as follows (time: mobile phase B percentage): 0 min: 25%, 6 minutes: 40%, 6.5 minutes: 25%.
MS parameters including: capillary voltage, −4000 V; nebulizer pressure, 40 pounds per square inch (psi); drying gas, 9 liters per minute (L/min); drying gas temperature, 325° C.; fragment voltage, 35 volts; dwell time, 200 milliseconds (ms); scan mode, selective ion monitoring (SIM) with [M-H]− for silybin (mass-to-charge ratio (m/z) 481), mono-glucuronide (m/z 657), and NG (m/z 271), respectively. LC-MS data were obtained by Agilent ChemStation Software.
Silybin is primarily metabolized to glucuronide (about 55%) and sulfate (about 28%) conjugates in human plasma after oral administration. To examine whether the co-incubation of flavonoids could affect the conjugation of silybin, the peak area of silybin glucuronides was measured by LC-MS (FIG. 6). Identification of glucuronides in the samples was based on their MS in-source fragmentations (m/z 657).
With `O=C1c2c(O)cc(O)cc2O[C@H](c2cc(O)c(O)c(O)c2)[C@H]1O` [dihydromyricetin], the inhibition at 20 µM was above 50%.
For the compound `COc1cc(-c2oc3cc(O)cc(O)c3c(=O)c2O)ccc1O` [isorhamnetin], the inhibition at 20 µM was above 50%.
Still for that read-out and setting: then `COc1cc(/C=C/C(=O)CC(=O)/C=C/c2ccc(O)c(OC)c2)ccc1O` [curcumin], with above 50%.
For `O=c1c(O)c(-c2ccc(O)cc2)oc2cc(O)cc(O)c12` [kaempferol], the inhibition at 20 µM was above 50%.
The same measure, in the same setting: with `O=c1cc(-c2ccccc2)oc2cc(O)cc(O)c12` [chrysin] the figure was above 50%; with `O=C(O)[C@H]1O[C@@H](Oc2cc3oc(-c4ccccc4)cc(=O)c3c(O)c2O)[C@H](O)[C@@H](O)[C@@H]1O` [baicalin], above 50%; with `O=c1c(O)c(-c2ccc(O)c(O)c2)oc2cc(O)cc(O)c12` [quercetin], above 50%.
Same read-out and setting: then `O=c1c(O)c(-c2ccc(O)c(O)c2)oc2cc(O)ccc12` [fisetin], with above 50%.
On to `COc1ccc(-c2oc3cc(O)cc(O)c3c(=O)c2O)cc1` [kaempferide], for which the inhibition at 20 µM was above 50%.

Still in this data set, the particulars now being: silybin 10 μM, test compound 20 μM co-incubation.
`O=c1c(O)c(-c2ccccc2)oc2cc(O)cc(O)c12` [galangin]: the “effect on glucuronide metabolites / glucuronide conjugation of silybin” value was “almost undetected”.
Still for that read-out and setting: with `CN(C)C(=O)CCSC(SCCC(=O)[O-])c1cccc(/C=C/c2ccc3ccc(Cl)cc3n2)c1.[Na+]` (centres unmarked) [MK571, (E)-3-[[[3-[2-(7-chloro-2-quinolinyl)ethenyl]phenyl][[3-(dimethylamino)-3-oxopropyl]thio]methyl]thio]-propanoic acid, sodium salt] the entry was “almost undetected”.
Turning to `COc1ccc(-c2cc(=O)c3c(O)cc(O)cc3o2)cc1O` [diosmetin], the “effect on glucuronide metabolites / glucuronide conjugation of silybin” value was “almost undetected”.
Same read-out and setting: with `O=c1c(O)c(-c2ccc(O)cc2O)oc2cc(O)cc(O)c12` [morin] the entry was “almost undetected”; with `O=C(O[C@@H]1Cc2c(O)cc(O)cc2O[C@@H]1c1ccc(O)c(O)c1)c1cc(O)c(O)c(O)c1` [(−)-ECG], “did not significantly inhibit the conjugation”; with `COc1ccc2c(c[n+](C)c3c4cc5c(cc4ccc23)OCO5)c1OC` [chelerythrine], “did not significantly inhibit the conjugation”.
In the case of `O=c1cc(-c2ccc(O)c(O)c2)oc2cc(O)cc(O)c12` [luteolin], the “effect on glucuronide metabolites / glucuronide conjugation of silybin” value is “almost undetected”.
For the compound `COc1ccc([C@@H]2CC(=O)c3c(O)cc(O[C@@H]4O[C@H](CO[C@@H]5O[C@@H](C)[C@H](O)[C@@H](O)[C@H]5O)[C@@H](O)[C@H](O)[C@H]4O)cc3O2)cc1O` [hesperidin], the “effect on glucuronide metabolites / glucuronide conjugation of silybin” value was “did not significantly inhibit the conjugation”.
In the case of `Oc1ccc(C=Cc2cc(O)cc(O)c2)cc1` [resveratrol], the “effect on glucuronide metabolites / glucuronide conjugation of silybin” value is given as “almost undetected”.

The term Papp denotes a coefficient for how fast a substance crosses the barrier. Lower therefore signals slow passage. Broadly, the inhibition is the percentage by which the read-out fell short of the control.
